According to patent publication US4604380A, “C-23-substituted mycaminosyltylonolide compounds, pharmaceutical compositions and methods of use” (Eli Lilly and Company, priority 1985, dated 1986):
Converted amounts (≈) assume the structure as drawn. Where two headings read alike, the source gives them in different places.

Key:
[1] = tested on: Streptococcus pneumoniae Park I; assay: microbe, parasite or virus in culture; type: cell-based; details: Streptococcus pneumoniae
Protocol: (§1) The MIC's s in Table III were determined by standard agar-dilution assays. The MIC's in Table IV were obtained using a conventional broth-dilution microtiter test.

Staphylococcus aureus = assay: ED50 vs. Staphylococcus aureus experimental infection in mice (Table V); type: in vivo; details: sc, subcutaneous, two doses, dose protecting 50% of animals, read-out: ED50 Subcutaneous
Protocol: (§2) Certain formula 1a compounds have also shown in vivo antimicrobial activity against experimental bacterial infections. When two doses of test compound were administered to mice in experimental infections, the activity observed was measured as an ED50 value [effective dose in mg/kg to protect 50% of the test animals: see Warren Wick, et al., J. Bacteriol. 81, 233-235 (1961)].

Pasteurella multocida = assay: Activity in Pasteurella multocida-infected one-day-old chicks (Table VIII); type: in vivo; details: subcutaneous 30 mg/kg × 2, 1 and 4 hours post-challenge, all non-medicated chicks died within 24 hours
Protocol: Table VIII summarizes the results of tests in which illustrative compounds were evaluated against a Pasteurella infection in one-day-old chicks. The compounds were administered parenterally after challenge of the chicks with Pasteurella multocida (0.1 mL of a 10^-4 dilution of a twenty-hour tryptose broth culture of an avian P. multocida given subcutaneously). In these tests, all non-medicated infected chicks died within 24 hours of Pasteurella challenge. In the tests summarized in Table VIII, the compounds were administered by subcutaneous injection at a dosage of 30 mg/kg, 1 and 4 hours post-challenge of the chicks with P. multocida.

Streptococcus pyogenes = assay: ED50 vs Streptococcus pyogenes experimental infection in mice (Table VI); type: in vivo; details: two doses, several values = results from more than one test
Protocol: as §2

Mycoplasma synoviae 40A = assay: MIC, conventional broth-dilution microtiter test (Table IV); type: cell-based; details: Mycoplasmopsis synoviae, 40A
Protocol: as §1

[2] = tested on: Pasteurella multocida 17E; assay: as above; type: cell-based
Protocol: as §1

[3] = tested on: Pasteurella multocida 60A; assay: as above; type: cell-based
Protocol: as §1

[4] = tested on: Pasteurella hemolytica 41D; assay: as above; type: cell-based; details: broth-dilution microtiter; Pasteurella hemolytica 41D; read-out: MIC
Protocol: as §1

Mycoplasma hyorhinis 29E = assay: as above; type: cell-based; details: broth-dilution microtiter; Mycoplasma hyorhinis 29E; read-out: MIC
Protocol: as §1

[5] = tested on: Staphylococcus aureus 19C; assay: as above; type: cell-based
Protocol: as §1

[6] = tested on: Pasteurella multocida 22A; assay: as above; type: cell-based; details: broth-dilution microtiter; Pasteurella multocida 22A; read-out: MIC
Protocol: as §1

[7] = tested on: Mycoplasma gallisepticum 29C; assay: as above; type: cell-based; details: Mycoplasmoides gallisepticum, 29C
Protocol: as §1

[8] = tested on: Pasteurella multocida 68C; assay: as above; type: cell-based; details: broth-dilution microtiter; Pasteurella multocida 68C; read-out: MIC
Protocol: as §1

[9] = tested on: Pasteurella multocida 40G; assay: as above; type: cell-based; details: broth-dilution microtiter; Pasteurella multocida 40G; read-out: MIC
Protocol: as §1

[10] = tested on: Bordetella bronchisepticum 95B; assay: as above; type: cell-based
Protocol: as §1

[11] = tested on: Mycoplasma hyopneumoniae S5972; assay: as above; type: cell-based; details: Mesomycoplasma hyopneumoniae, S5972
Protocol: as §1

[12] = tested on: Pasteurella hemolytica 23C; assay: as above; type: cell-based; details: broth-dilution microtiter; Pasteurella hemolytica 23C; read-out: MIC
Protocol: as §1

[13] = tested on: Pasteurella hemolytica 22C; assay: as above; type: cell-based; details: broth-dilution microtiter; Pasteurella hemolytica 22C; read-out: MIC
Protocol: as §1

[14] = tested on: Mycoplasma gallisepticum 36H; assay: as above; type: cell-based; details: Mycoplasmoides gallisepticum, 36H
Protocol: as §1

Streptococcus sp. 19F = assay: as above; type: cell-based
Protocol: as §1

[15] = tested on: Streptococcous pneumoniae; assay: ED50 vs. Streptococcous pneumoniae experimental infection in mice (Table VII); type: in vivo; details: Mus musculus, sc, subcutaneous, two doses, read-out: ED50 Subcutaneous
Protocol: as §2

[16] = tested on: Haemophilus influenzae C.L.; assay: MIC, standard agar-dilution assay (Table III); type: cell-based
Protocol: as §1

[17] = tested on: Staphylococcus aureus X400; assay: MIC, standard agar-dilution assay (Table III); type: cell-based; details: Staphylococcus aureus, X400
Protocol: as §1

[18] = tested on: Streptococcus Group D 2041; assay: MIC, standard agar-dilution assay (Table III); type: cell-based; details: GROUPD2041
Protocol: as §1

[19] = tested on: Staphylococcus aureus V41; assay: MIC, standard agar-dilution assay (Table III); type: cell-based; details: Staphylococcus aureus V41, penicillin-resistant strain
Protocol: as §1

[20] = tested on: Staphylococcus epidermidis 222; assay: MIC, standard agar-dilution assay (Table III); type: cell-based
Protocol: as §1

[21] = tested on: Staphylococcus aureus S13E; assay: MIC, standard agar-dilution assay (Table III); type: cell-based
Protocol: as §1

[22] = tested on: Streptococcus pyogenes C203; assay: MIC, standard agar-dilution assay (Table III); type: cell-based
Protocol: as §1

[23] = tested on: Staphylococcus epidermidis EPI1; assay: MIC, standard agar-dilution assay (Table III); type: cell-based; details: Staphylococcus epidermidis, EPI1
Protocol: as §1

[24] = tested on: Staphylococcus aureus X1.1; assay: MIC, standard agar-dilution assay (Table III); type: cell-based
Protocol: as §1

[25] = tested on: Haemophilus influenzae 76; assay: MIC, standard agar-dilution assay (Table III); type: cell-based
Protocol: as §1

[26] = tested on: Streptococcus Group D X66; assay: MIC, standard agar-dilution assay (Table III); type: cell-based
Protocol: as §1

[27] = tested on: Mycoplasma gallisepticum 15E; assay: MIC, conventional broth-dilution microtiter test (Table IV); type: cell-based; details: Mycoplasmoides gallisepticum, 15E
Protocol: as §1

Compound	ED50 (Staphylococcus aureus) [mg/kg]	Number of Deaths/Number Treated (Pasteurella multocida)	ED50 (Streptococcus pyogenes; po, read-out: ED50 Oral) [mg/kg]	MIC (Mycoplasma synoviae 40A) [µg/mL]	MIC [4] [µg/mL]	MIC (Mycoplasma hyorhinis 29E) [µg/mL]	MIC [6] [µg/mL]	MIC [7] [µg/mL]	MIC [8] [µg/mL]	MIC [9] [µg/mL]	MIC [10] [µg/mL]	MIC [11] [µg/mL]	MIC [12] [µg/mL]	MIC [13] [µg/mL]	MIC [14] [µg/mL]	MIC (Streptococcus sp. 19F) [µg/mL]	ED50 [15] [mg/kg]	MIC [17] [µg/mL]	MIC [18] [µg/mL]	MIC [19] [µg/mL]	other results
CCC1OC(=O)CC(O)C(C)C(OC2OC(C)C(O)C(N(C)C)C2O)C(CC=O)CC(C)C(=O)C=CC(C)=CC1CN1CC2(C)CC1CC(C)(C)C2 (stereo not shown) [Compound 23, 23-deoxy-23-(1,3,3-trimethyl-6-azabicyclo[3.2.1]octan-6-yl)-OMT]	3.79	10/10	100	< 0.048	1.56 (≈ 2.13 µM)	1.56 (≈ 2.13 µM)	0.39 (≈ 0.532 µM)	< 0.048	0.78 (≈ 1.06 µM)	0.78 (≈ 1.06 µM)	12.5 (≈ 17.1 µM)	0.048 (≈ 0.0655 µM)	1.56 (≈ 2.13 µM)	1.56 (≈ 2.13 µM)	3.12 (≈ 4.26 µM)	< 0.048	3.6	0.5 (≈ 0.682 µM)	0.5 (≈ 0.682 µM)	0.5 (≈ 0.682 µM)	MIC ([1]; read-out: MIC): 0.06 µg/mL (≈ 0.0819 µM); MIC ([2]; broth-dilution microtiter, Pasteurella multocida 17E, bovine isolate, read-out: MIC): 0.78 µg/mL (≈ 1.06 µM); MIC ([3]; broth-dilution microtiter, Pasteurella multocida 60A, avian isolate, read-out: MIC): 1.56 µg/mL (≈ 2.13 µM); MIC ([5]; broth-dilution microtiter, Staphylococcus aureus 19C, read-out: MIC): 1.56 µg/mL (≈ 2.13 µM); MIC ([16]; agar dilution, Haemophilus influenzae C.L., ampicillin-sensitive strain, read-out: MIC): 2 µg/mL (≈ 2.73 µM); MIC ([20]; agar dilution, Staphylococcus epidermidis 222, read-out: MIC): 0.125 µg/mL (≈ 0.171 µM); MIC [21]: 0.5 µg/mL (≈ 0.682 µM); MIC ([22]; agar dilution, Streptococcus pyogenes C203, read-out: MIC): 0.25 µg/mL (≈ 0.341 µM); MIC [23]: 0.5 µg/mL (≈ 0.682 µM); MIC [24]: 0.5 µg/mL (≈ 0.682 µM); MIC ([25]; agar dilution, Haemophilus influenzae 76, ampicillin-resistant strain, read-out: MIC): 1 µg/mL (≈ 1.36 µM); MIC [26]: 0.5 µg/mL (≈ 0.682 µM)
CCC1OC(=O)CC(O)C(C)C(OC2OC(C)C(O)C(N(C)C)C2O)C(CC=O)CC(C)C(=O)C=CC(C)=CC1CN1CC2CCC(CC2)C1 (stereo not shown) [Compound 17, 23-(3-azabicyclo[3.2.2]nonan-3-yl)-OMT]	2.31	10/10	> 100	< 0.048	0.39 (≈ 0.553 µM)	0.39 (≈ 0.553 µM)	0.39 (≈ 0.553 µM)	< 0.048	0.39 (≈ 0.553 µM)	0.39 (≈ 0.553 µM)	6.25 (≈ 8.87 µM)	0.048 (≈ 0.0681 µM)	0.39 (≈ 0.553 µM)	0.39 (≈ 0.553 µM)	50 (≈ 70.9 µM)	0.39 (≈ 0.553 µM)	> 10	0.5 (≈ 0.709 µM)	1 (≈ 1.42 µM)	0.5 (≈ 0.709 µM)	MIC [1]: 0.06 µg/mL (≈ 0.0851 µM); ED50 (Streptococcus pyogenes; sc, subcutaneous, read-out: ED50 Subcutaneous): 9.09 mg/kg; ED50 Subcutaneous (Streptococcus pyogenes; subcutaneous): > 10 mg/kg × 2; MIC ([2]; Pasteurella multocida, 17E): 0.78 µg/mL (≈ 1.11 µM); MIC ([3]; Pasteurella multocida, 60A): 0.78 µg/mL (≈ 1.11 µM); MIC ([5]; Staphylococcus aureus, 19C): 0.78 µg/mL (≈ 1.11 µM); MIC [27]: 50 µg/mL (≈ 70.9 µM); MIC ([16]; Haemophilus influenzae): 2 µg/mL (≈ 2.84 µM); MIC ([20]; Staphylococcus epidermidis, 222): 0.25 µg/mL (≈ 0.355 µM); MIC [21]: 0.5 µg/mL (≈ 0.709 µM); MIC ([22]; Streptococcus pyogenes, C203): 0.25 µg/mL (≈ 0.355 µM); MIC [23]: 0.5 µg/mL (≈ 0.709 µM); MIC [24]: 0.5 µg/mL (≈ 0.709 µM); MIC ([25]; Haemophilus influenzae, 76): 2 µg/mL (≈ 2.84 µM); MIC [26]: 0.5 µg/mL (≈ 0.709 µM)
